Measurements taken from ChEMBL document CHEMBL3352679, “Structure and evaluation of antibacterial and antitubercular properties of new basic and heterocyclic 3-formylrifamycin SV derivatives obtained via 'click chemistry' approach” (Eur J Med Chem, 2014).
Converted amounts (≈) assume the structure as drawn.

Tested on: Mycobacterium tuberculosis variant bovis
Experiment: Antituberculosis activity against Mycobacterium bovis after 14 days by serial microdilution method
Format: functional
Details: 336 h

Structure (SMILES) | MIC99 [µg/mL]
CO[C@H]1/C=C/O[C@@]2(C)Oc3c(C)c(O)c4c(O)c(c(CNCCN5CCCC5)c(O)c4c3C2=O)NC(=O)/C(C)=C\C=C\[C@H](C)[C@H](O)[C@@H](C)[C@@H](O)[C@@H](C)[C@H](OC(C)=O)[C@@H]1C | 1 (≈ 1.21 µM)
CO[C@H]1/C=C/O[C@@]2(C)Oc3c(C)c(O)c4c(O)c(c(CNCc5cn(CN6C(=O)c7ccccc7C6=O)nn5)c(O)c4c3C2=O)NC(=O)/C(C)=C\C=C\[C@H](C)[C@H](O)[C@@H](C)[C@@H](O)[C@@H](C)[C@H](OC(C)=O)[C@@H]1C | 0.25 (≈ 0.259 µM)
CCCCCc1cn(CCCN2Cc3c4c(O)c5c(O)c(C)c6c(c5c3O)C(=O)[C@@](C)(O/C=C/[C@H](OC)[C@@H](C)[C@@H](OC(C)=O)[C@H](C)[C@H](O)[C@H](C)[C@@H](O)[C@@H](C)/C=C/C=C(/C)C2=N4)O6)nn1 | 0.5 (≈ 0.563 µM)
CO[C@H]1/C=C/O[C@@]2(C)Oc3c(C)c(O)c4c(O)c(c(CNCCCn5ccnc5)c(O)c4c3C2=O)NC(=O)/C(C)=C\C=C\[C@H](C)[C@H](O)[C@@H](C)[C@@H](O)[C@@H](C)[C@H](OC(C)=O)[C@@H]1C | 1 (≈ 1.2 µM)
CCCCCc1cn(CCCNCc2c3c(O)c4c(O)c(C)c5c(c4c2O)C(=O)[C@@](C)(O/C=C/[C@H](OC)[C@@H](C)[C@@H](OC(C)=O)[C@H](C)[C@H](O)[C@H](C)[C@@H](O)[C@@H](C)/C=C/C=C(/C)C(=O)N3)O5)nn1 | 0.5 (≈ 0.552 µM)
CO[C@H]1/C=C/O[C@@]2(C)Oc3c(C)c(O)c4c(O)c(c(C=O)c(O)c4c3C2=O)NC(=O)/C(C)=C\C=C\[C@H](C)[C@H](O)[C@@H](C)[C@@H](O)[C@@H](C)[C@H](OC(C)=O)[C@@H]1C | > 1
CCCc1cn(CCN2Cc3c4c(O)c5c(O)c(C)c6c(c5c3O)C(=O)[C@@](C)(O/C=C/[C@H](OC)[C@@H](C)[C@@H](OC(C)=O)[C@H](C)[C@H](O)[C@H](C)[C@@H](O)[C@@H](C)/C=C/C=C(/C)C2=N4)O6)nn1 | 0.5 (≈ 0.591 µM)
CO[C@H]1/C=C\O[C@@]2(C)Oc3c(C)c(O)c4c(O)c(c(CNC5CCN(Cc6ccccc6)CC5)c(O)c4c3C2=O)NC(=O)/C(C)=C\C=C/[C@H](C)[C@H](O)[C@@H](C)[C@@H](O)[C@@H](C)[C@H](OC(C)=O)[C@@H]1C | 0.125 (≈ 0.139 µM)
CO[C@H]1/C=C/O[C@@]2(C)Oc3c(C)c(O)c4c(O)c(c(CNC5CCN(Cc6ccccc6)CC5)c(O)c4c3C2=O)NC(=O)/C(C)=C\C=C\[C@H](C)[C@H](O)[C@@H](C)[C@@H](O)[C@@H](C)[C@H](OC(C)=O)[C@@H]1C | 0.125 (≈ 0.139 µM)
CO[C@H]1/C=C/O[C@@]2(C)Oc3c(C)c(O)c4c(O)c(c(CNCCCN5CCCC5)c(O)c4c3C2=O)NC(=O)/C(C)=C\C=C\[C@H](C)[C@H](O)[C@@H](C)[C@@H](O)[C@@H](C)[C@H](OC(C)=O)[C@@H]1C | 1 (≈ 1.19 µM)
CCCc1cn(CCNCc2c3c(O)c4c(O)c(C)c5c(c4c2O)C(=O)[C@@](C)(O/C=C/[C@H](OC)[C@@H](C)[C@@H](OC(C)=O)[C@H](C)[C@H](O)[C@H](C)[C@@H](O)[C@@H](C)/C=C/C=C(/C)C(=O)N3)O5)nn1 | 1 (≈ 1.16 µM)
CO[C@H]1/C=C/O[C@@]2(C)Oc3c(C)c(O)c4c(O)c(c(CNCCN(C)C)c(O)c4c3C2=O)NC(=O)/C(C)=C\C=C\[C@H](C)[C@H](O)[C@@H](C)[C@@H](O)[C@@H](C)[C@H](OC(C)=O)[C@@H]1C | > 1
CO[C@H]1/C=C/O[C@@]2(C)Oc3c(C)c(O)c4c(O)c5c(c(O)c4c3C2=O)CN(Cc2cn(CN3C(=O)c4ccccc4C3=O)nn2)C(=N5)/C(C)=C\C=C\[C@H](C)[C@H](O)[C@@H](C)[C@@H](O)[C@@H](C)[C@H](OC(C)=O)[C@@H]1C | 0.5 (≈ 0.527 µM)
CO[C@H]1/C=C/O[C@@]2(C)Oc3c(C)c(O)c4c(O)c(c(CNCCCN5CCN(CCCNCc6c7c(O)c8c(O)c(C)c9c(c8c6O)C(=O)[C@@](C)(O/C=C/[C@H](OC)[C@@H](C)[C@@H](OC(C)=O)[C@H](C)[C@H](O)[C@H](C)[C@@H](O)[C@@H](C)/C=C/C=C(/C)C(=O)N7)O9)CC5)c(O)c4c3C2=O)NC(=O)/C(C)=C\C=C\[C@H](C)[C@H](O)[C@@H](C)[C@@H](O)[C@@H](C)[C@H](OC(C)=O)[C@@H]1C | > 1
CO[C@H]1/C=C/O[C@@]2(C)Oc3c(C)c(O)c4c(O)c(c(/C=N/N5CCN(C)CC5)c(O)c4c3C2=O)NC(=O)/C(C)=C\C=C\[C@H](C)[C@H](O)[C@@H](C)[C@@H](O)[C@@H](C)[C@H](OC(C)=O)[C@@H]1C [RIFAMPIN] | 0.25 (≈ 0.304 µM)
